From patent US20190125772A1, “IMPROVED DRUG COMBINATIONS FOR DRUG-RESISTANT AND DRUG-SENSITIVE MULTIPLE MYELOMA” (priority 2015, published 2019) come the findings set out here.

Assay [1] concerns RPMI 8226 (Bortezomib-sensitive) versus THLE-2 healthy control cells. The experiment in a line: FSC in vitro cellular assay, output = cell viability of THLE-2 minus cell viability of RPMI 8226, with linear regression and response surface maps. It counts as cell-based. The note with it: for drug candidate assessment from two-drug interaction terms: first iteration, interaction coefficients with desirable candidates.
Excerpt: This is expressed as a therapeutic window (% Output) that is the difference in percentage (%) viability between treated multiple myeloma and THLE-2 cells.

In assay [2] the test system is Bortezomib-sensitive RPMI 8226 multiple myeloma cells. As to the kind of experiment: Inhibitory concentrations (ICx, inhibition of cell growth) of the drugs in FSC-derived optimal combinations, Bortezomib-sensitive multiple myeloma. It counts as cell-based. The following applies: concentration of the single drug as used in optimal combinations. An excerpt:
FIG. 8: Table showing the design of three iterations. IC20 represents 20% inhibitory concentration, which is the dosage of drug for 20% inhibition of cell growth. The first and second iterations are drug screening experiments to remove unfavorable drug candidates.
FIG. 14: Multi-drug optimization experimental assessment of prescribed combinations and output. […] The calculated y from the equation (FIG. 13) is the output as shown here.
In each iteration (experiment run), a list of drug combinations used is based on an experimental design methodology that aims to reduce the number of experiments to obtain sufficient information to build a mathematical equation.
After the list of drug combinations is determined, the drug combinations are applied to an in vitro cellular assay. A healthy control cell (THLE-2) is used to determine liver toxicity caused by drug treatment. Drug efficacy is determined using the B lymphocyte cancer cell (RPMI 8226). Favorable drug combinations would maximize cancer cell killing while minimizing health cell death. […] The experiments are conducted in a rapid, high-throughput manner using an automated liquid handler machine.

The structures appear in SMILES notation.

As to `CC(C)C[C@H](NC(=O)[C@H](CCc1ccccc1)NC(=O)CN1CCOCC1)C(=O)N[C@@H](Cc1ccccc1)C(=O)N[C@@H](CC(C)C)C(=O)[C@@]1(C)CO1` [Carfilzomib, (2S)-N-((S)-1-((S)-4-methyl-1-((R)-2-methyloxiran-2-yl)-1-oxopentan-2-ylcarbamoyl)-2-phenylethyl)-2-((S)-2-(2-morpholinoacetamido)-4-phenylbutanamido)-4-methylpentanamide], the “effect of presence or absence of the drug on the output” value in assay [1] (third iteration, other four drugs kept at 100%) was “does not change the output”.

For `O.O=P1(N(CCCl)CCCl)NCCCO1` (stereo not shown) [Cyclophoshamide monohydrate], the “drug candidate assessment from two-drug interaction terms” value (“drug candidate assessment” below) in assay [1] (first attempt) and in assay [1] (second attempt) was “can be eliminated” throughout.

As for `Nc1ncn([C@H]2C[C@H](O)[C@@H](CO)O2)c(=O)n1` [Decitabine, 5-aza-2′-deoxycytidine], the “drug candidate assessment” value in assay [1] (first attempt) is “can be eliminated”.

`CO[C@@]12[C@H](COC(N)=O)C3=C(C(=O)C(C)=C(N)C3=O)N1C[C@@H]1N[C@@H]12` [Mitomycin C]: the “drug candidate assessment” value in assay [1] (second attempt) is on record as “can be eliminated”.

With `Cc1[nH]c2ccccc2c1CCNCc1ccc(/C=C/C(=O)NO)cc1` [Panobinostat, (2E)-N-hydroxy-3-[4-({[2-(2-methyl-1H-indol-3-yl)ethyl]amino}methyl)phenyl]acrylamide], in assay [2], the IC8.75 was about 0.0003239 µM, the IC17.5 is about 0.0005905 µM, the IC26.25 is about 0.0008734 µM and the IC35 is about 1.195 nM. Also, in assay [2] (listed as Panobinostal), the IC8.75 entry was “IC8.75/[3.239E−4 μM]”, the IC17.5 entry is “IC17.5/[5.905E−4 μM]”, the IC26.25 entry is “IC26.25/[8.734E−4 μM]” and the IC35 result was “IC35/[1.195E−3 μM]”.
